{"source": "patent US10168342B2", "about": "“Lipid probes and uses thereof” (THE SCRIPPS RESEARCH INSTITUTE, priority 2015, dated 2019)", "key": {"[1]": {"target": "T1, AEA-DA lipid probe targets in Neuro2a cells (Mus musculus, UniProt Q8BXV2)", "T1 sequence (Q8BXV2 1-253)": "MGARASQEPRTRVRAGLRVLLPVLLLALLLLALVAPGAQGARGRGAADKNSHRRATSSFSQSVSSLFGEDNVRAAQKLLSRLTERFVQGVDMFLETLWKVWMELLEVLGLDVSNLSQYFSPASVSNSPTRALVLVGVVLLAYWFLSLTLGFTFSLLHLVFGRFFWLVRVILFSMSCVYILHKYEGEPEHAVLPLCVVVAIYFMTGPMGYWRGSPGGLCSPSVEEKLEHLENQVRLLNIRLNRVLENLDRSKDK"}, "[2]": {"target": "AEA-DA lipid probe targets in Neuro2a cells (Mus musculus, UniProt Q8VDL4)", "sequence (Q8VDL4 23-496)": "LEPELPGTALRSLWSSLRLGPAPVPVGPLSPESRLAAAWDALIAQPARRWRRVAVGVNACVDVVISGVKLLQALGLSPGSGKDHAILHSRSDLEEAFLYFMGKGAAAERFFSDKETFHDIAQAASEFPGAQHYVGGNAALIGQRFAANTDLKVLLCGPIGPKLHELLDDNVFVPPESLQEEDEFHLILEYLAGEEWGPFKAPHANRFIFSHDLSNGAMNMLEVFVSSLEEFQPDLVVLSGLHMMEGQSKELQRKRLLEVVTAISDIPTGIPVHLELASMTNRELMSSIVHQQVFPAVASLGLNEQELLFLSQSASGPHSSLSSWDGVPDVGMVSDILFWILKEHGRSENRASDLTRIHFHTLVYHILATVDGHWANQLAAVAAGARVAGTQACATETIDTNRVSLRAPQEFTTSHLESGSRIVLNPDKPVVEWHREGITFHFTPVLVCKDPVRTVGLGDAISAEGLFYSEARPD"}, "[3]": {"target": "T2, AEA-DA lipid probe targets in Neuro2a cells (Mus musculus, UniProt O89023)", "T2 sequence (O89023 195-562)": "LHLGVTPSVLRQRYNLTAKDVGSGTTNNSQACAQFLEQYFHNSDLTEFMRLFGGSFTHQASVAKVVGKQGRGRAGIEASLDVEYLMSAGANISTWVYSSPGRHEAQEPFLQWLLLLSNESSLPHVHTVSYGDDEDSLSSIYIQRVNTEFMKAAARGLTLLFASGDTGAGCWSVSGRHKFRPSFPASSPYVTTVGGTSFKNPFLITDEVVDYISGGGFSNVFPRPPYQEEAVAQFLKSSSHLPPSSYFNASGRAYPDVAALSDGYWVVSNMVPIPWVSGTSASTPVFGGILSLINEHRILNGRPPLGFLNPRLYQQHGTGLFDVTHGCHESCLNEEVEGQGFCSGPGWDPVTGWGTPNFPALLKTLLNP"}, "[4]": {"target": "T3, AEA-DA lipid probe targets in Neuro2a cells (Mus musculus, UniProt P00375)", "T3 sequence (P00375 1-187)": "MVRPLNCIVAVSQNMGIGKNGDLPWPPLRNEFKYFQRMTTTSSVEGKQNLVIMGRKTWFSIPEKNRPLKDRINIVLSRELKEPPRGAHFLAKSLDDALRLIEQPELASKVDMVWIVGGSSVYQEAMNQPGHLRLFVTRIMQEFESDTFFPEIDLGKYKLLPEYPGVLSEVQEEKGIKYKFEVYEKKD"}, "[5]": {"target": "T4, AEA-DA lipid probe targets in Neuro2a cells (Mus musculus, UniProt Q3UEB3)", "T4 sequence (Q3UEB3 1-564)": "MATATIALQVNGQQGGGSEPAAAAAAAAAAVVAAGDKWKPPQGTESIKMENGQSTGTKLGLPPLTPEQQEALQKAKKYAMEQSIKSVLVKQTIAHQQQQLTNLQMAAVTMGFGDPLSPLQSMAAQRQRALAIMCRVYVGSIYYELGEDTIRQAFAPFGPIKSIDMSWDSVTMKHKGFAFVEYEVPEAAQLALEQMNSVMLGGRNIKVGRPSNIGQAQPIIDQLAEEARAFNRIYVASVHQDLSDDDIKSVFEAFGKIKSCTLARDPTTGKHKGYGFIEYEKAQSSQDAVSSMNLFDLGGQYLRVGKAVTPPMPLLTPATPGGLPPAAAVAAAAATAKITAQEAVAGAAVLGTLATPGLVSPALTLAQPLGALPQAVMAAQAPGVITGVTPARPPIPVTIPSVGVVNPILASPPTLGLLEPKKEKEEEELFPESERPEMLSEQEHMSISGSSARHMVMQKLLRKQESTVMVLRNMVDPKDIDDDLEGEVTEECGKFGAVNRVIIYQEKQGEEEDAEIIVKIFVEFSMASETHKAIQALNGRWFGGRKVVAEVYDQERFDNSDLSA"}, "[6]": {"target": "T5, AEA-DA lipid probe targets in Neuro2a cells (Mus musculus, UniProt Q925I1)", "T5 sequence (Q925I1 1-591)": "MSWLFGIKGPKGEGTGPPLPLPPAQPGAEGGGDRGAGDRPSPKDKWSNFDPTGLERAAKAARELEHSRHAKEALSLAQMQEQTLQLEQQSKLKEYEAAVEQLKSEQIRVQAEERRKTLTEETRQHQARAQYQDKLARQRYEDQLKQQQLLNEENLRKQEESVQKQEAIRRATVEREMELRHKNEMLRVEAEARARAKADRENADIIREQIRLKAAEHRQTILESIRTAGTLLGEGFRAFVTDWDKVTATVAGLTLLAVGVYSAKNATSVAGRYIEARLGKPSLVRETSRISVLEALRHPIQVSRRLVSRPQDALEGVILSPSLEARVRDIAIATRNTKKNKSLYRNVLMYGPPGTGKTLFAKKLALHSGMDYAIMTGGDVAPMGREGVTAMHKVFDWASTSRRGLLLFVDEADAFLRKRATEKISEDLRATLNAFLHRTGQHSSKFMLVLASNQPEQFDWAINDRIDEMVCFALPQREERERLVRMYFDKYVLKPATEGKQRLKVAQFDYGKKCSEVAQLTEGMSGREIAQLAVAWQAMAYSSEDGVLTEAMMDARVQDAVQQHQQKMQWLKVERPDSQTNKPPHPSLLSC"}, "[7]": {"target": "T6, AEA-DA lipid probe targets in Neuro2a cells (Mus musculus, UniProt Q9D379)", "T6 sequence (Q9D379 1-455)": "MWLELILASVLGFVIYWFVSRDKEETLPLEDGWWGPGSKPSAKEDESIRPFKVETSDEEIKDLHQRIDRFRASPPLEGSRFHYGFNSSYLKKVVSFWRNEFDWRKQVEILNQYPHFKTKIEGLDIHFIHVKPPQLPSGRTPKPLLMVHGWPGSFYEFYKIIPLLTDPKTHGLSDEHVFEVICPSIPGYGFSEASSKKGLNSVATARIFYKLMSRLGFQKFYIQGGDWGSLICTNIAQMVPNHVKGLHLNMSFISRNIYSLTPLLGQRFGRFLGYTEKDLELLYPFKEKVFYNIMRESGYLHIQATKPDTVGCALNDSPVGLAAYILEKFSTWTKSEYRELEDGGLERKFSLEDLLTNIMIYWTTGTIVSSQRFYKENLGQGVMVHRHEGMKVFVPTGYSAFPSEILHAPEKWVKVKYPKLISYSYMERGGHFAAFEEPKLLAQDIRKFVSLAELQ"}}, "note": "Like-named read-outs stand apart in the source and are kept apart here."}
{"smiles": "CCCCC/C=C\\C/C=C\\C/C=C\\C/C=C\\CCCC(=O)NCCO", "note": "[AEA, anandamide, reference compound]", "values": [{"measurement": "SILAC ratio, Bri3bp", "setting": "[1]; competitor 200 μM", "result": 2.0}, {"measurement": "SILAC ratio, Adpgk", "setting": "[2]; competitor 200 μM", "result": 1.8}, {"measurement": "SILAC ratio Tpp1", "setting": "[3]; competitor 200 μM", "result": 1.5}, {"measurement": "SILAC ratio Dhfr", "setting": "[4]; competitor 200 μM", "result": 1.2}, {"measurement": "SILAC ratio Puf60", "setting": "[5]; competitor 200 μM", "result": 1.3}, {"measurement": "SILAC ratio Atad3", "setting": "[6]; competitor 200 μM", "result": 1.5}, {"measurement": "SILAC ratio, Ephx1", "setting": "[7]; competitor 200 μM", "result": 2.1}]}
{"smiles": "O=C(/C=C/c1cccnc1)NCCCCC1CCN(C(=O)c2ccccc2)CC1", "note": "[FK-866, reference compound]", "values": [{"measurement": "SILAC ratio, Bri3bp", "setting": "[1]; competitor 25 μM", "result": 1.1}, {"measurement": "SILAC ratio, Adpgk", "setting": "[2]; competitor 25 μM", "result": 1.2}, {"measurement": "SILAC ratio Tpp1", "setting": "[3]; competitor 25 μM", "result": 1.0}, {"measurement": "SILAC ratio Dhfr", "setting": "[4]; competitor 25 μM", "result": 1.2}, {"measurement": "SILAC ratio Puf60", "setting": "[5]; competitor 25 μM", "result": 1.3}, {"measurement": "SILAC ratio Atad3", "setting": "[6]; competitor 25 μM", "result": 1.2}, {"measurement": "SILAC ratio, Ephx1", "setting": "[7]; competitor 25 μM", "result": 1.4}]}
{"smiles": "CN1CCN(C(=O)c2c(-c3ccccc3)c3cc([N+](=O)[O-])ccc3n2C)CC1", "note": "[KML110, (1-Methyl-5-nitro-3-phenyl-1H-indol-2-yl)(4-methylpiperazin-1-yl)methanone]", "values": [{"measurement": "SILAC ratio, Bri3bp", "setting": "[1]; competitor 25 μM", "result": 1.6}, {"measurement": "SILAC ratio, Adpgk", "setting": "[2]; competitor 25 μM", "result": 1.5}, {"measurement": "SILAC ratio Tpp1", "setting": "[3]; competitor 25 μM", "result": 1.5}, {"measurement": "SILAC ratio Dhfr", "setting": "[4]; competitor 25 μM", "result": 1.4}, {"measurement": "SILAC ratio Puf60", "setting": "[5]; competitor 25 μM", "result": 1.3}, {"measurement": "SILAC ratio Atad3", "setting": "[6]; competitor 25 μM", "result": 1.2}, {"measurement": "SILAC ratio, Ephx1", "setting": "[7]; competitor 25 μM", "result": 3.4}]}
{"smiles": "CN1CCN(C(=O)c2[nH]c3ccc([N+](=O)[O-])cc3c2-c2ccccc2)CC1", "note": "[MJN228, (4-Methylpiperazin-1-yl)(5-nitro-3-phenyl-1H-indol-2-yl)methanone]", "values": [{"measurement": "SILAC ratio, Bri3bp", "setting": "[1]; competitor 10 μM", "result": 1.3}, {"measurement": "SILAC ratio, Bri3bp", "setting": "[1]; competitor 25 μM", "result": 1.5}, {"measurement": "SILAC ratio, Bri3bp", "setting": "[1]; competitor 50 μM", "result": 1.4}, {"measurement": "SILAC ratio, Bri3bp", "setting": "[1]; competitor 100 μM", "result": 2.1}, {"measurement": "SILAC ratio, Adpgk", "setting": "[2]; competitor 10 μM", "result": 1.4}, {"measurement": "SILAC ratio, Adpgk", "setting": "[2]; competitor 25 μM", "result": 1.7}, {"measurement": "SILAC ratio, Adpgk", "setting": "[2]; competitor 50 μM", "result": 1.5}, {"measurement": "SILAC ratio, Adpgk", "setting": "[2]; competitor 100 μM", "result": 2.0}, {"measurement": "SILAC ratio Tpp1", "setting": "[3]; competitor 10 μM", "result": 1.4}, {"measurement": "SILAC ratio Tpp1", "setting": "[3]; competitor 25 μM", "result": 1.4}, {"measurement": "SILAC ratio Tpp1", "setting": "[3]; competitor 50 μM", "result": 1.8}, {"measurement": "SILAC ratio Tpp1", "setting": "[3]; competitor 100 μM", "result": 2.0}, {"measurement": "SILAC ratio Dhfr", "setting": "[4]; competitor 10 μM", "result": 2.0}, {"measurement": "SILAC ratio Dhfr", "setting": "[4]; competitor 25 μM", "result": 1.6}, {"measurement": "SILAC ratio Dhfr", "setting": "[4]; competitor 50 μM", "result": 0.4}, {"measurement": "SILAC ratio Dhfr", "setting": "[4]; competitor 100 μM", "result": 1.5}, {"measurement": "SILAC ratio Puf60", "setting": "[5]; competitor 10 μM", "result": 1.4}, {"measurement": "SILAC ratio Puf60", "setting": "[5]; competitor 25 μM", "result": 1.2}, {"measurement": "SILAC ratio Puf60", "setting": "[5]; competitor 50 μM", "result": 1.0}, {"measurement": "SILAC ratio Puf60", "setting": "[5]; competitor 100 μM", "result": 1.2}, {"measurement": "SILAC ratio Atad3", "setting": "[6]; competitor 10 μM", "result": 1.1}, {"measurement": "SILAC ratio Atad3", "setting": "[6]; competitor 25 μM", "result": 1.4}, {"measurement": "SILAC ratio Atad3", "setting": "[6]; competitor 50 μM", "result": 1.3}, {"measurement": "SILAC ratio Atad3", "setting": "[6]; competitor 100 μM", "result": 1.4}, {"measurement": "SILAC ratio, Ephx1", "setting": "[7]; competitor 10 μM", "result": 2.5}, {"measurement": "SILAC ratio, Ephx1", "setting": "[7]; competitor 25 μM", "result": 3.8}, {"measurement": "SILAC ratio, Ephx1", "setting": "[7]; competitor 50 μM", "result": 8.2}, {"measurement": "SILAC ratio, Ephx1", "setting": "[7]; competitor 100 μM", "result": 11.5}]}
{"smiles": "C=CCN(C)CCCCCCOc1ccc(C(=O)c2ccc(Br)cc2)c(F)c1", "note": "[Ro 48-8071, reference compound]", "values": [{"measurement": "SILAC ratio, Bri3bp", "setting": "[1]; competitor 25 μM", "result": 1.1}, {"measurement": "SILAC ratio, Adpgk", "setting": "[2]; competitor 25 μM", "result": 1.2}, {"measurement": "SILAC ratio Tpp1", "setting": "[3]; competitor 25 μM", "result": 0.8}, {"measurement": "SILAC ratio Dhfr", "setting": "[4]; competitor 25 μM", "result": 0.8}, {"measurement": "SILAC ratio Puf60", "setting": "[5]; competitor 25 μM", "result": 1.0}, {"measurement": "SILAC ratio Atad3", "setting": "[6]; competitor 25 μM", "result": 1.0}, {"measurement": "SILAC ratio, Ephx1", "setting": "[7]; competitor 25 μM", "result": 2.4}]}
